Test results published in article PMC6150413 (Molecules : A Journal of Synthetic Chemistry and Natural …, 2017).
Ends that are not written are not given here. Peptide text beside a SMILES is read from it.

Assays:
[1] = test system: E. coli; details: cited from earlier work
[2] = test system: S. aureus; details: cited from earlier work
[3] = test system: P. aeruginosa; details: cited from earlier work
[4] = test system: 3T3-L1 cells
[5] = test system: E. coli ATCC 25922; details: ATCC 25922, 2 h
Method: (§1) The antimicrobial activities of VIP and its analogues were tested against S. aureus ATCC 25923 and E. coli ATCC 25922 according to the method reported by Wani et al. with slight modification. The final peptide concentrations ranged from 0.5 to 256 μM. The tests were performed in triplicate using 4 replicates for each experiment. In addition, S. aureus ATCC 25923 and E. coli ATCC 25922 (2 × 10^6 CFU/mL) were treated with natural VIP and VIP8 at MIC for 2 h. […] The haemolytic activity of VIP and VIP derivatives were measured using porcine erythrocytes according to previous method. MTT (3-[4,5 dimethylthiozol-2-yl]-2,5-diphenyltetrazolium bromide) was used to determine the cytotoxicity of VIP and its analogue on porcine intestinal epithelial cells IPEC-J2. Stable experiments were conducted with reference to the literature with slightly changes. First, the pH of the mediums was adjusted to acidic (pH 4.0, pH 5.0, and pH 6.0) and basic (pH 8.0, pH 9.0, and pH 10.0) conditions. To investigate the effects of ion strength, the bacterial mediums were supplemented with different concentrations of NaCl (20 mM, 60 mM, and 180 mM) or MgCl2 (1 mM, 25 mM, and 50 mM). Then, bacteria were incubated with VIP, VIP analogues 2 and 8, respectively. After 3 h of incubation, bacterial viability was measured with a Synergy HT multimode reader (BioTek, Winooski, VT, USA) at 600 nm.
(§2) Both the agar diffusion test and modified broth microdilution method were used to evaluate the antimicrobial activity of recombinant expressed VIP8. For the Oxford cup agar diffusion, the sample was added to an Oxford cup, which was then placed on a Mueller-Hinton agar plate containing 1 × 10^5 colony-forming units of S. aureus […]. Chemically-synthesized VIP8 and ampicillin were used as the positive control. The minimal inhibition concentration was determined by the method reported by Wani et al..

[6] = test system: S. aureus ATCC 25923; details: ATCC 25923, 2 h
Method: as §1, §2

[7] = set-up: method as in PMID 9038346; details: salt from 50 to 125 mmol/L; cited from earlier work

For “human β-defensin 4 (EFELDRICGYGTARCRKKCRSQEYRIGRCPNTYACCLRKWDESLLNRTKP; ends and bridges not checked; cysteine pairing not given here; UniProt Q8WTQ1 23-72, looked up) [hBD-4, human β-defensin quoted from the literature]”, the “Antimicrobial activity at high concentrations of NaCl” value (“Antimicrobial activity” below) [1] is listed as “attenuated”, the “Antimicrobial activity” value [2] is listed as “attenuated” and the “Antimicrobial activity” value [3] is listed as “attenuated”.

With `CC[C@H](C)[C@H](NC(=O)[C@H](C)NC(=O)[C@H](C)NC(=O)[C@H](CC(C)C)NC(=O)[C@H](Cc1ccc(O)cc1)NC(=O)[C@H](CCCNC(=N)N)NC(=O)[C@H](CCCNC(=N)N)NC(=O)[C@@H](NC(=O)[C@H](C)NC(=O)[C@H](CC(C)C)NC(=O)[C@H](CCC(N)=O)NC(=O)[C@H](CCCNC(=N)N)NC(=O)[C@H](CCCNC(=N)N)NC(=O)[C@H](CC(C)C)NC(=O)[C@H](CCCNC(=N)N)NC(=O)[C@@H](NC(=O)[C@H](Cc1ccc(O)cc1)NC(=O)[C@H](CC(N)=O)NC(=O)[C@H](C)NC(=O)[C@@H](NC(=O)[C@@H](N)Cc1ccccc1)[C@@H](C)O)[C@@H](C)O)C(C)C)C(=O)N[C@@H](CC(C)C)C(=O)NCC(=O)N[C@@H](CCCNC(=N)N)C(=O)N[C@@H](CCCNC(=N)N)C(=O)O` [VIP8] (H-FTANYTRLRRQLAVRRYLAAILGRR-OH) the “Cytotoxicity (in words)” value [4] was “no cytotoxicity”, the “MBC (minimum bactericidal concentration)” value [5] was 4 µM and the “MIC (minimum inhibitory concentration)” value [5] was 2 µM. The “MBC (minimum bactericidal concentration)” value [6] was 4 µM and the “MIC (minimum inhibitory concentration)” value [6] was 2 µM.

For “human β-defensin 1 (DHYNCVSSGGQCLYSACPIFTKIQGTCYRGKAKCCK; ends and bridges not checked; cysteine pairing not given here; UniProt P60022 33-68, looked up) [hBD-1, human β-defensin quoted from the literature]”, the “Activity remaining at raised salt concentration” value [7] is listed as 12%.
